Read-outs that look alike come from different tables or passages of the source.

One data set relates to X. laevis tadpoles. Kind of data set: animal or person. It counts as in vivo. The note with it: for EC50: Xenopus laevis, read-out: EC50 (95% CI); for observable toxicity in tadpoles / pharmacological end point in tadpoles: in vivo. How it is done:
Behavioral activity was initially determined in albino X. laevis tadpoles (stages 45–47) as described previously ([29], [33]). All animal care and experimental procedures involving X. laevis tadpoles were carried out according to a protocol approved by the IACUC of the University of Pennsylvania.

The next data set has as its target T1, α1β2γ2L GABAA receptors (Homo sapiens, UniProt P14867+P47870).
T1 construct: expressed in transfected cells; host or cells: Xenopus laevis oocytes
Kind of data set: cell-based. How it is done:
GABAA receptor expression in X. laevis oocytes was completed as described previously ([40]). cDNAs for GABAA receptor α1, β2, and γ2L subunits were generously provided by Dr. Robert Pearce (University of Wisconsin). All animal care and experimental procedures involving X. laevis frogs were carried out according to a protocol approved by the IACUC of Thomas Jefferson University. GABAA receptor currents expressed in X. laevis oocytes were recorded as reported previously ([40]). Data acquisition and initial analysis were performed using pClamp 9.2/10.3 (Molecular Devices, Sunnyvale, CA). Macroscopic currents were low-pass filtered at 1 kHz and digitized at 2 kHz. Data were fit to a sigmoidal dose-response curve with variable Hill slope.

A short description of data set [1]: Physicochemical properties (density).
A further data set addresses T2, horse spleen apoferritin (Equus caballus, UniProt P02791).
T2 construct: soluble protein model horse spleen apoferritin; from tissue; host or cells: horse spleen
T2 sequence (P02791 2-175 limits assumed): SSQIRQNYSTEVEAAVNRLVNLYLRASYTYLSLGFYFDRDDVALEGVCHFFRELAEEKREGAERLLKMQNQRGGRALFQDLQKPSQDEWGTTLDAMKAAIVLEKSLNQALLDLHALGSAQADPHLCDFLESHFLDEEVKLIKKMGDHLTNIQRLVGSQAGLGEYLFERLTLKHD
As to the kind of experiment: 1-AMA displacement fluorescence assay. It counts as binding. How it is done: 1-AMA fluorescence inhibition has been reported as a reliable measurement of anesthetic occupation of the horse spleen apoferritin anesthetic site ([64]). 1-AMA displacement studies were conducted as described previously ([29]). The fluorescence intensity versus concentration data were fitted to variable slope Hill models to obtain the IC50 and Hill slope. The KD value was calculated using the Cheng-Prusoff equation to correct for the presence of the 1-AMA competitors.

T1 sequence (P14867 28-456): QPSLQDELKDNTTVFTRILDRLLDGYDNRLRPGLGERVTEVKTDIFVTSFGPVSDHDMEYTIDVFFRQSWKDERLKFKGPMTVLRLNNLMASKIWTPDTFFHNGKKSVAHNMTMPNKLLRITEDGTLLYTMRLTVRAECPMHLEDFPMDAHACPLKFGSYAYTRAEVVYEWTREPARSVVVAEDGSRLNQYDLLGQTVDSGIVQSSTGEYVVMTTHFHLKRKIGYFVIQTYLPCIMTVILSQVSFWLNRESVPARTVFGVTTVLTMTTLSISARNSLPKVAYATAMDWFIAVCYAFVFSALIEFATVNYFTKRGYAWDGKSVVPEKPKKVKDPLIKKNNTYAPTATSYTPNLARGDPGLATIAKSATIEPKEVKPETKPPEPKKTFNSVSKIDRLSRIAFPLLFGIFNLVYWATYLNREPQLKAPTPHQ
T1 sequence (P47870 25-512 limits assumed): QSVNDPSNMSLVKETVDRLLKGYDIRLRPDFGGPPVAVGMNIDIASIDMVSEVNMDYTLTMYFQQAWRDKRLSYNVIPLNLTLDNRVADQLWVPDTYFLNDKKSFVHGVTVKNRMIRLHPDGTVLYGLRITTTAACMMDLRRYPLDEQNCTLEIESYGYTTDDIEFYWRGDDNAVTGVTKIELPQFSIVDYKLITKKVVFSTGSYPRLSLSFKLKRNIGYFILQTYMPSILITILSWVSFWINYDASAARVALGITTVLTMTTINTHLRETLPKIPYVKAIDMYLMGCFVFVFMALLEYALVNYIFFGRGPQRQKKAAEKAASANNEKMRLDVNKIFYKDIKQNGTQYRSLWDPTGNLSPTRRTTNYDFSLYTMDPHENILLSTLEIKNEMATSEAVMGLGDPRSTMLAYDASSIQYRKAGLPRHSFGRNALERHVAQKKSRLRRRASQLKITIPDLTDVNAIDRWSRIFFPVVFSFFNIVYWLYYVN
T1 sequence (P18507 40-475 partner): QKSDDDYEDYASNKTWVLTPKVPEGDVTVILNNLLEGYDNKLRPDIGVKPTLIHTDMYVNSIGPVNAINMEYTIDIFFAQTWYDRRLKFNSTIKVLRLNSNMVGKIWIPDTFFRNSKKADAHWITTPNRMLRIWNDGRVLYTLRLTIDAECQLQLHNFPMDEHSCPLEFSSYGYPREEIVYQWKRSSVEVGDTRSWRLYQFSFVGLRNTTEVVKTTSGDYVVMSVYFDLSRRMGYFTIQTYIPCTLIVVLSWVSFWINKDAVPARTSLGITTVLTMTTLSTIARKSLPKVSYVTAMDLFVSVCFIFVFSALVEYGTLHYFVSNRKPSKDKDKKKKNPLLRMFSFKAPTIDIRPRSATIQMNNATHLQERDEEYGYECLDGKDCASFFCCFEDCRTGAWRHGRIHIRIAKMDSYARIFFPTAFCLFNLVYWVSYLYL

As for `C#CCOCc1ccc(C2(C(F)(F)F)N=N2)cc1O` [AziPm-click (1), 2-((prop-2-yn-1-yloxy)methyl)-5-(3-(trifluoromethyl)-3H-diazirin-3-yl)phenol], in the data set with X. laevis tadpoles, the EC50 turned out to be 6.1 µM, the “observable toxicity in tadpoles” value is listed as “no observable toxicity” and the “pharmacological end point in tadpoles” value was “reversible hypnosis”. On α1β2γ2L GABAA receptors (read-out: EC50 for positive modulation), the EC50 was determined as 49 µM. Moreover, the Density in data set [1] stood at 1.19 g/mL. Besides, on horse spleen apoferritin, the “Hill slope (mean ± S.E.), 1-AMA displacement” value is −0.97 ± 0.39. Besides, at horse spleen apoferritin (fluorescence data derived from the Cheng-Prusoff equation, read-out: KD (95% CI), 1-AMA displacement), the Kd stood at 4 µM.
Consider `CC(C)c1cccc(C(C)C)c1O` [propofol, 2,6-diisopropylphenol, reference compound], for which, in the data set with X. laevis tadpoles, the EC50 was found to be 0.9 µM, the “observable toxicity in tadpoles” value is listed as “no observable toxicity” and the “pharmacological end point in tadpoles” value is given as “reversible hypnosis”. Besides, the EC50 on α1β2γ2L GABAA receptors was found to be 10 µM. The compound further showed a Density in data set [1] of 0.96 g/mL. For the same compound, at horse spleen apoferritin, the “Hill slope (mean ± S.E.), 1-AMA displacement” value is listed as −1.1 ± 0.33 and the affinity, expressed as Kd, was 2.4 µM.

These data come from PMC5034043 (The Journal of Biological Chemistry, 2016).
